Some results are limits rather than exact numbers.

In the assay the target is FP receptor (Homo sapiens (Human), UniProt P43088). Nature of the assay: In vitro test of inhibition of human FP receptor activity (PGF2α-induced calcium flux in FP-expressing CHEM1 cells). The assay is classed as cell-based. The note with it: PGF2α-induced (2 nM) calcium flux in FP-expressing CHEM1 cells; some as mean values from multiple determinations. The source says: Table 1 below lists the IC50 values from this assay for individual working examples of the invention (some as mean values from multiple independent individual determinations): […]
Sequence of FP receptor (P43088 whole entry): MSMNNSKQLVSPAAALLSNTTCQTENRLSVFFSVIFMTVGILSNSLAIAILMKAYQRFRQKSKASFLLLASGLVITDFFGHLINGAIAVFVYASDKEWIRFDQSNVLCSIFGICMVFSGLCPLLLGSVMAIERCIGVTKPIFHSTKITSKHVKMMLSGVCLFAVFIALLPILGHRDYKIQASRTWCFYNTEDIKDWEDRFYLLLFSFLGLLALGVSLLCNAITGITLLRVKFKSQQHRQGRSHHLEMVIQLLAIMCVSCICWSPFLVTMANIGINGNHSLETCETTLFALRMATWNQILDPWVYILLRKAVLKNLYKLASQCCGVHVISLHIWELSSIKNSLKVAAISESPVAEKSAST
A general note: A change in cytosolic calcium serves as a functional read-out for many receptors and channels.
For `Cc1c(-c2ccccc2)nc2ccc(Br)cc2c1C(=O)NCC(CCC(=O)O)c1c(F)cccc1C(F)(F)F` (single isomer, unassigned; (+)) [Example 226, (+)-5-{[(6-Bromo-3-methyl-2-phenylquinolin-4-yl)carbonyl]amino}-4-[2-fluoro-6-(trifluoromethyl)phenyl]pentanoic Acid], the IC50 is 100 nM.
The figure for `Cc1c(-c2ccccc2)nc2ccc(Br)cc2c1C(=O)NCC(CCC(=O)O)c1cc(F)ccc1Cl` (single isomer, unassigned; (-)) [Example 164, (−)-5-{[(6-Bromo-3-methyl-2-phenylquinolin-4-yl)carbonyl]amino}-4-(2-chloro-5-fluorophenyl)pentanoic Acid] is 15 nM; for `Cc1cccc(C(CNC(=O)c2c(C)c(-c3ccccc3)nc3ccc(Br)cc23)CC(=O)O)c1` (single isomer, unassigned) [Example 94, 4-{[(6-Bromo-3-methyl-2-phenylquinolin-4-yl)carbonyl]amino}-3-(3-methylphenyl)butanoic Acid] it is 96 nM.
In the case of `CCC(CNC(=O)c1c(C)c(-c2ccccc2)nc2ccc(Br)cc12)(C(=O)O)c1ccccc1` (single isomer, unassigned; (+)) [Example 18, (+)-2-({[(6-Bromo-3-methyl-2-phenylquinolin-4-yl)carbonyl]amino}methyl)-2-phenylbutanoic Acid], the IC50 is 120 nM.
For `Cc1c(-c2ccccc2)nc2ccc(Br)cc2c1C(=O)NCC(CCC(=O)O)c1cc(F)ccc1Cl` (racemic) [Example 163, (+/−)-5-{[(6-Bromo-3-methyl-2-phenylquinolin-4-yl)carbonyl]amino}-4-(2-chloro-5-fluorophenyl)pentanoic Acid] the value was 8.7 nM; for `COc1cc(F)ccc1C(C)(CNC(=O)c1c(C)c(-c2ccccc2)nc2ccc(Br)cc12)CC(=O)O` (single isomer, unassigned; (-)) [Example 140, (−)-4-{[(6-Bromo-3-methyl-2-phenylquinolin-4-yl)carbonyl]amino}-3-(4-fluoro-2-methoxyphenyl)-3-methylbutanoic Acid], > 1000 nM; for `Cc1c(-c2ccccc2)nc2ccc(Br)cc2c1C(=O)NCC(C(=O)O)c1ccccc1` (racemic) [Example 1, (+/−)-3-{[(6-Bromo-3-methyl-2-phenylquinolin-4-yl)carbonyl]amino}-2-phenylpropanoic Acid], 130 nM.
Regarding `COc1cccc(F)c1C(CNC(=O)c1c(C)c(-c2ccccc2)nc2ccc(Br)cc12)CC(=O)O` (single isomer, unassigned; (-)) [Example 128, (−)-4-{[(6-Bromo-3-methyl-2-phenylquinolin-4-yl)carbonyl]amino}-3-(2-fluoro-6-methoxyphenyl)butanoic Acid], the IC50 stood at 110 nM.
The figure for `COc1cccc(F)c1C(CNC(=O)c1c(C)c(-c2ccccc2)nc2ccc(Br)cc12)CC(=O)O` (single isomer, unassigned; (+)) [Example 127, (+)-4-{[(6-Bromo-3-methyl-2-phenylquinolin-4-yl)carbonyl]amino}-3-(2-fluoro-6-methoxyphenyl)butanoic Acid] is 25 nM; for `Cc1c(-c2ccccc2)nc2ccc(Br)cc2c1C(=O)NCC(C)(CCC(=O)O)c1cc(F)ccc1Cl` (single isomer, unassigned; (-)) [Example 170, (−)-5-{[(6-Bromo-3-methyl-2-phenylquinolin-4-yl)carbonyl]amino}-4-(2-chloro-5-fluorophenyl)-4-methylpentanoic Acid] it is 110 nM.
In the case of `Cc1c(-c2ccccc2)nc2ccc(Br)cc2c1C(=O)NCC(C)(C(=O)O)c1ccccc1Cl` (single isomer, unassigned; (+)) [Example 37, (+)-3-{[(6-Bromo-3-methyl-2-phenylquinolin-4-yl)carbonyl]amino}-2-(2-chlorophenyl)-2-methylpropanoic Acid], the IC50 came out at 160 nM.
As to `Cc1c(-c2ccccc2)nc2ccc(Br)cc2c1C(=O)NC(C)C(CC(=O)O)c1ccccc1Cl` (single isomer, unassigned; (+)) [Example 147, (+)-4-{[(6-Bromo-3-methyl-2-phenylquinolin-4-yl)carbonyl]amino}-3-(2-chlorophenyl)pentanoic Acid], the IC50 is > 1000 nM.
For `Cc1c(-c2ccccc2)nc2ccc(Br)cc2c1C(=O)NCC(C)(C(=O)O)c1c(F)cccc1Cl` (single isomer, unassigned; (-)) [Example 62, (−)-3-{[(6-Bromo-3-methyl-2-phenylquinolin-4-yl)carbonyl]amino}-2-(2-chloro-6-fluorophenyl)-2-methylpropanoic Acid] the value was 43 nM; for `Cc1c(-c2ccccc2)nc2ccc(Br)cc2c1C(=O)NCC(CCC(=O)O)c1c(Cl)ccc(Cl)c1Cl` (single isomer, unassigned; (-)) [Example 236, (−)-5-{[(6-Bromo-3-methyl-2-phenylquinolin-4-yl)carbonyl]amino}-4-(2,3,6-trichlorophenyl)pentanoic Acid], 2 nM; for `C#Cc1ccc2nc(-c3ccccc3)c(C)c(C(=O)NCC(CCC(=O)O)c3ccccc3Cl)c2c1` (single isomer, unassigned; (+)) [Example 220, (+)-4-(2-Chlorophenyl)-5-{[(6-ethynyl-3-methyl-2-phenylquinolin-4-yl)carbonyl]amino}pentanoic Acid], 8 nM.
Consider `Cc1c(-c2ccccc2)nc2ccc(Br)cc2c1C(=O)NCC(SCC(=O)O)c1ccccc1Cl` (racemic) [Example 194, (+/−)-{[2-{[(6-Bromo-3-methyl-2-phenylquinolin-4-yl)carbonyl]amino}-1-(2-chlorophenyl)ethyl]sulfanyl}acetic Acid], for which the IC50 was found to be 7.9 nM.
The figure for `Cc1c(-c2ccccc2)nc2ccc(Br)cc2c1C(=O)NCC(CCC(=O)O)c1ccccc1OC(F)F` (single isomer, unassigned; (+)) [Example 180, (+)-5-{[(6-Bromo-3-methyl-2-phenylquinolin-4-yl)carbonyl]amino}-4-[2-(difluoromethoxy)phenyl]pentanoic Acid] is 8.2 nM; for `Cc1c(-c2ccccc2)nc2ccc(Br)cc2c1C(=O)NCC(CCC(=O)O)c1c(F)c(F)cc(F)c1F` (single isomer, unassigned; (-)) [Example 229, (−)-5-{[(6-Bromo-3-methyl-2-phenylquinolin-4-yl)carbonyl]amino}-4-(2,3,5,6-tetrafluorophenyl)pentanoic Acid] it is 2.7 nM; for `COc1ccccc1C(C)(CNC(=O)c1c(C)c(-c2ccccc2)nc2ccc(Br)cc12)CC(=O)O` (single isomer, unassigned; (+)) [Example 121, (+)-4-{[(6-Bromo-3-methyl-2-phenylquinolin-4-yl)carbonyl]amino}-3-(2-methoxyphenyl)-3-methylbutanoic Acid] it is 10 nM.
For `Cc1c(-c2ccccc2)nc2ccc(Br)cc2c1C(=O)NCC(C(=O)O)c1ccc2c(c1)OCO2` (single isomer, unassigned) [Example 24, 2-(1,3-Benzodioxol-5-yl)-3-{[(6-bromo-3-methyl-2-phenylquinolin-4-yl)carbonyl]amino}propanoic Acid] the value was 580 nM.
For `Cc1c(-c2ccccc2)nc2ccc(Br)cc2c1C(=O)NCC(C)(CCCC(=O)O)c1ccccc1` (single isomer, unassigned; (+)) [Example 245, (+)-6-{[(6-Bromo-3-methyl-2-phenylquinolin-4-yl)carbonyl]amino}-5-methyl-5-phenylhexanoic Acid] the value was 63 nM; for `COc1ccccc1C(O)(CNC(=O)c1c(C)c(-c2ccccc2)nc2ccc(Br)cc12)C(=O)O` (racemic) [Example 53, (+/−)-3-{[(6-Bromo-3-methyl-2-phenylquinolin-4-yl)carbonyl]amino}-2-hydroxy-2-(2-methoxyphenyl)propanoic Acid], 180 nM.
For the compound `Cc1ccccc1C(CCC(=O)O)CNC(=O)c1c(C)c(-c2ccccc2)nc2ccc(Br)cc12` (racemic) [Example 160, (+/−)-5-{[(6-Bromo-3-methyl-2-phenylquinolin-4-yl)carbonyl]amino}-4-(2-methylphenyl)pentanoic Acid], the IC50 is 13 nM.
Consider `C#Cc1ccc2nc(-c3ccccc3)c(C)c(C(=O)NCC(CCC(=O)O)c3ccccc3Cl)c2c1` (racemic) [Example 218, (+/−)-4-(2-Chlorophenyl)-5-{[(6-ethynyl-3-methyl-2-phenylquinolin-4-yl)carbonyl]amino}pentanoic Acid], for which the IC50 turned out to be 13 nM.
Consider `Cc1c(-c2ccccc2)nc2ccc(Br)cc2c1C(=O)NCC(CC(=O)O)c1c(F)cccc1Cl` (single isomer, unassigned; (+)) [Example 89, (+)-4-{[(6-Bromo-3-methyl-2-phenylquinolin-4-yl)carbonyl]amino}-3-(2-chloro-6-fluorophenyl)butanoic Acid], for which the IC50 came out at 27 nM.
The figure for `Cc1c(-c2ccccc2)nc2ccc(Br)cc2c1C(=O)NCC(CCC(=O)O)c1ccccc1Cl` (racemic) [Example 151, (+/−)-5-{[(6-Bromo-3-methyl-2-phenylquinolin-4-yl)carbonyl]amino}-4-(2-chlorophenyl)pentanoic Acid] is 7.8 nM; for `Cc1c(-c2ccccc2)nc2ccc(Br)cc2c1C(=O)NCC(c1ccccc1Cl)S(=O)(=O)CC(=O)O` (racemic) [Example 197, (+/−)-{[2-{[(6-Bromo-3-methyl-2-phenylquinolin-4-yl)carbonyl]amino}-1-(2-chlorophenyl)ethyl]sulfonyl}acetic Acid] it is 21 nM.
Regarding `Cc1c(-c2ccccc2)nc2ccc(Br)cc2c1C(=O)NCC(CC(=O)O)c1ccc(Cl)cc1` (single isomer, unassigned; (-)) [Example 68, (−)-4-{[(6-Bromo-3-methyl-2-phenylquinolin-4-yl)carbonyl]amino}-3-(4-chlorophenyl)butanoic Acid], the IC50 is > 1000 nM.
For `CCOc1ccccc1C(CNC(=O)c1c(C)c(-c2ccccc2)nc2ccc(Br)cc12)CC(=O)O` (racemic) [Example 129, (+/−)-4-{[(6-Bromo-3-methyl-2-phenylquinolin-4-yl)carbonyl]amino}-3-(2-ethoxyphenyl)butanoic Acid], the IC50 was 130 nM.

One may read the IC50 as the point on the concentration scale where inhibition reaches its midpoint.
